According to US20130310256A1, “HERBICIDAL COMPOSITIONS COMPRISING 4-AMINO-3-CHLORO-5-FLUORO-6-(4-CHLORO-2-FLUORO-3-METHOXYPHENYL) PYRIDINE-2-CARBOXYLIC ACID OR A DERIVATIVE THEREOF AND VLCFA AND LIPID SYNTHESIS INHIBITING HERBICIDES” (DOW AGROSCIENCES LLC, priority 2008, published 2013):

Tests used:
POLHP = test: Example V: field trial, in-water application to transplanted rice, Niigata, Japan; format: in vivo, Polygonum hydropiperoides; conditions: 31 DAA, submerged weeds
Experimental: (§1) Post and pre-emergence field trials were conducted in Niigata, Japan. Trial sites were located in commercially grown fields of transplanted rice (Oryza sativa, variety: Koshihikari) using standard herbicide small plot research methodology. The trial plot size was 2 meters (m)×2 m with 3 replications. The nursery plants were grown in the greenhouse using practical methods and transplanted into the field at the 2.5-leaf stage on May 7, 2012. The row and in-row spaces were 30 cm and 17 cm, respectively. The crop was grown using normal cultural practices for fertilization, water management and maintenance to ensure good growth of the crop and the weeds.
(§2) Treatments consisted of the benzyl ester of 4-amino-3-chloro-5-fluoro-6-(4-chloro-2-fluoro-3-methoxyphenyl)pyridine-2-carboxylic acid (Compound A) formulated as an SC (suspension concentrate) and various herbicidal components alone and in combination. Compound A benzyl ester was applied on an active ingredient basis. […]
(§3) Compound A benzyl ester SC was once diluted in 100 mL water in the 200 mL bottle/plot to achieve the desired rates and applied by water injection. […] Visual weed control was scored on a scale of 0 to 100 percent where 0 corresponds to no injury and 100 corresponds to complete kill. […]

SCPJU [1] = test: as above; format: in vivo, Scirpus juncoides; conditions: 31 DAA, submerged weeds
Experimental: as §1, §2, §3

SCPJU [2] = test: Example I: postemergence foliar-applied weed control, greenhouse; format: in vivo, Schoenoplectus juncoides (Roxb.) Palla (Japanese bulrush)
SCPJU [3] = test: Example II: in-water applied weed control, transplanted paddy rice, greenhouse; format: in vivo, Schoenoplectus juncoides (Roxb.) Palla (Japanese bulrush)
Experimental: Weed seeds or nutlets of the desired test plant species were planted in puddled soil (mud) prepared by mixing a shredded, non-sterilized mineral soil (50.5 percent silt, 25.5 percent clay, and 24 percent sand, with a pH of about 7.6 and an organic matter content of about 2.9 percent) and water at a 1:1 volumetric ratio. The prepared mud was dispensed in 365 mL aliquots into 16-ounce (oz.) non-perforated plastic pots with a surface area of 86.59 square centimeters (cm^2) leaving a headspace of 3 centimeters (cm) in each pot. Mud was allowed to dry overnight prior to planting or transplanting. Rice seeds were planted in Sun Gro MetroMix® 306 planting mixture, which typically has a pH of 6.0 to 6.8 and an organic matter content of about 30 percent, in plastic plug trays. Seedlings at the second or third leaf stage of growth were transplanted into 840 mL of mud contained in 32-oz. non-perforated plastic pots with a surface area of 86.59 cm^2 4 days prior to herbicide application. The paddy was created by filling the headspace of the pots with 2.5 to 3 cm of water. When required to ensure good germination and healthy plants, a fungicide treatment and/or other chemical or physical treatment was applied. The plants were grown for 4-22 days in a greenhouse with an approximate 14 hr photoperiod which was maintained at about 29′C during the day and 26° C. during the night. Nutrients were added as Osmocote® (19:6:12, N:P:K+ minor nutrients) at 2 g per 16-oz. pot and 4 g per 32-oz. pot. […]
(§4) Treatment requirements for each compound or herbicidal component were calculated based upon the rates being tested, the concentration of active ingredient or acid equivalent in the formulation, an application volume of 2 mL per component per pot, and an application area of 86.59 cm^2 per pot.
For formulated compounds, a measured amount was placed in an individual 100 or 200 mL glass vial and was dissolved in a volume of 1.25% (v/v) Agri-Dex® crop oil concentrate to obtain application solutions. […]

FIMMI = test: as above; format: in vivo, Fimbristylis miliacea (L.) Vahl (globe fringerush); conditions: for Visual Weed Control FIMMI Obs: 19 DAA
Experimental: Weed seeds or nutlets of the desired test plant species were planted in puddled soil (mud) prepared by mixing a shredded, non-sterilized mineral soil (50.5 percent silt, 25.5 percent clay, and 24 percent sand, with a pH of about 7.6 and an organic matter content of about 2.9 percent) and water at a 1:1 volumetric ratio. The prepared mud was dispensed in 365 mL aliquots into 16-ounce (oz.) non-perforated plastic pots with a surface area of 86.59 square centimeters (cm^2) leaving a headspace of 3 centimeters (cm) in each pot. Mud was allowed to dry overnight prior to planting or transplanting. Rice seeds were planted in Sun Gro MetroMix® 306 planting mixture, which typically has a pH of 6.0 to 6.8 and an organic matter content of about 30 percent, in plastic plug trays. Seedlings at the second or third leaf stage of growth were transplanted into 840 mL of mud contained in 32-oz. non-perforated plastic pots with a surface area of 86.59 cm^2 4 days prior to herbicide application. The paddy was created by filling the headspace of the pots with 2.5 to 3 cm of water. When required to ensure good germination and healthy plants, a fungicide treatment and/or other chemical or physical treatment was applied. The plants were grown for 4-22 days in a greenhouse with an approximate 14 hr photoperiod which was maintained at about 29′C during the day and 26° C. during the night. Nutrients were added as Osmocote® (19:6:12, N:P:K+ minor nutrients) at 2 g per 16-oz. pot and 4 g per 32-oz. pot. Water was added on a regular basis to maintain the paddy flood, and supplemental lighting was provided with overhead metal halide 1000-Watt lamps as necessary. The plants were employed for testing when they reached the first through fourth true leaf stage.
Treatments consisted of the acid or esters of 4-amino-3-chloro-5-fluoro-6-(4-chloro-2-fluoro-3-methoxy-phenyl)pyridine-2-carboxylic acid (compound A) each formulated as an SC (suspension concentrate) and various herbicidal components alone and in combination. Forms of compound A were applied on an acid equivalent basis.
The herbicidal components were applied on an active ingredient basis and included very long chain fatty acid (VLCFA) synthesis-inhibiting and fatty acid/lipid synthesis-inhibiting herbicides acetochlor (technical grade material), acetochlor+dichlormid formulateded as Topnotch®, pretilachlor (technical grade material), butachlor formulated as Butachlor EC, fentrazamide formulated as Fentrazamide EC, thiobencarb formulated as Bolero® 8EC, cafenstrole formulated as Himeadow® WP or Lapost® Flowable, benfuresate formulated as Full Shot®, anilofos (technical grade material), mefenacet (technical grade material), molinate (technical grade material), and thenylchlor (technical grade material).
as §4
For formulated compounds, a measured amount was placed in an individual 100 or 200 mL glass vial and was dissolved in a volume of 1.25% (v/v) Agri-Dex® crop oil concentrate to obtain application solutions.
For technical grade compounds, a weighed amount was placed in an individual 100 to 200 mL glass vial and was dissolved in a volume of acetone to obtain concentrated stock solutions. […] The concentrated stock solutions obtained were diluted with an equivalent volume of an aqueous mixture containing 2.5% (v/v) crop oil concentrate so that the final application solutions contained 1.25% (v/v) crop oil concentrate.
Applications were made by injecting with a pipetter appropriate amounts of the application solutions, individually and sequentially, into the aqueous layer of the paddy. Control plants were treated in the same manner with the solvent blank. […]

## CCS(=O)(=O)Oc1ccc2c(c1)C(C)(C)CO2 [Benfuresate, 2,3-dihydro-3,3-dimethyl-5-benzofuranyl ethanesulfonate]
POLHP; 600 gai/ha
  Visual Weed Control POLHP Obs: 94.3%
SCPJU [1]; 600 gai/ha
  Visual Weed Control SCPJU Obs: 64.3%

## CCN(CC)C(=O)n1cnc(S(=O)(=O)c2c(C)cc(C)cc2C)n1 [Cafenstrole, N,N-diethyl-3-[(2,4,6-trimethylphenyl)sulfonyl]-1H-1,2,4-triazole-1-carboxamide]
SCPJU [2]; 26.25 gai/ha
  Visual Weed Control (%) - 21 DAA SCPJU Obs: 0%
SCPJU [2]; 52.5 gai/ha
  Visual Weed Control (%) - 21 DAA SCPJU Obs: 0%
SCPJU [2]; 105 gai/ha
  Visual Weed Control (%) - 21 DAA SCPJU Obs: 0%

## COc1c(Cl)ccc(-c2nc(C(=O)O)c(Cl)c(N)c2F)c1F [Compound A Acid, 4-amino-3-chloro-6-(4-chloro-2-fluoro-3-methoxyphenyl)-5-fluoropyridine-2-carboxylic acid]
SCPJU [3]; 8.75 gae/ha
  Visual Weed Control (%) - 20 DAA SCPJU Obs: 40%
FIMMI; 8.75 gae/ha
  Visual Weed Control (%) - 20 DAA FIMMI Obs: 50%

## COc1c(Cl)ccc(-c2nc(C(=O)OCc3ccccc3)c(Cl)c(N)c2F)c1F [Compound A Benzyl Ester, benzyl ester of 4-amino-3-chloro-5-fluoro-6-(4-chloro-2-fluoro-3-methoxy-phenyl)pyridine-2-carboxylic acid]
POLHP; 100 gai/ha
  Visual Weed Control POLHP Obs: 68.3%
SCPJU [1]; 100 gai/ha
  Visual Weed Control SCPJU Obs: 87.7%
FIMMI; 4.38 gae/ha
  Visual Weed Control (%) - 20 DAA FIMMI Obs: 30%
FIMMI; 8 gae/ha
  Visual Weed Control FIMMI Obs: 0%
FIMMI; 8.75 gae/ha
  Visual Weed Control (%) - 20 DAA FIMMI Obs: 60%
FIMMI; 16 gae/ha
  Visual Weed Control FIMMI Obs: 0%
FIMMI; 32 gae/ha
  Visual Weed Control FIMMI Obs: 85%
SCPJU [2]; 4.38 gae/ha
  Visual Weed Control (%) - 21 DAA SCPJU Obs: 40%

## CCCOCCN(C(=O)CCl)c1c(CC)cccc1CC [Pretilachlor, 2-chloro-N-(2,6-diethylphenyl)-N-(2-propoxyethyl)acetamide]
SCPJU [3]; 75 gai/ha
  Visual Weed Control (%) - 20 DAA SCPJU Obs: 50%
SCPJU [3]; 150 gai/ha
  Visual Weed Control (%) - 20 DAA SCPJU Obs: 20%
FIMMI; 75 gai/ha
  Visual Weed Control (%) - 20 DAA FIMMI Obs: 40%
FIMMI; 150 gai/ha
  Visual Weed Control (%) - 20 DAA FIMMI Obs: 45%
